Measured values reported in US11214594B2, “Antimicrobial peptide having synergistic antibacterial effect with antibiotics on multidrug resistant bacteria, and use thereof” (priority 2016, dated 2022).
≈ marks a conversion by molar mass, not a printed value. Where a SMILES comes first, the peptide text is derived from it.

What was measured:
MDRST 8007 = assay: Minimal inhibitory concentration (MIC), single agent; format: cell-based, Salmonella typhimurium; conditions: agent alone
In short: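 Each strain is brought to 2×10^6 CFU in nutrient-sufficient Mueller-Hinton medium and dispensed into wells. Peptide solutions, stepwise diluted 2:1 in the same medium, are then added. The minimal concentration preventing growth gives the MIC.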

A. baumannii = assay: MIC of antibiotic during combined treatment with antimicrobial peptide; format: cell-based, Acinetobacter baumannii; conditions: for Antibiotic MIC, Erythromycin / Antibiotic MIC, Linezolid / Antibiotic MIC, Vancomycin: A. baumannii
In short: (§1)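 Antibiotic diluted in MH medium, dispensed per well with peptide; setup repeated with roles reversed; MIC read per combination.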

E. coli = assay: as above; format: cell-based, Escherichia coli; conditions: for Antibiotic MIC, Erythromycin / Antibiotic MIC, Linezolid / Antibiotic MIC, Vancomycin: E. coli
In short: as §1

MDRAB 12035 = assay: as above; format: cell-based, Acinetobacter baumannii
In short: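 Antibiotic MIC came from antibiotic dilutions added to bacteria (2×10^6 CFU/ml, MH medium) already combined with peptide serially diluted 2:1 from its own MIC. Swapping the roles of the two agents gave the peptide MIC.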

[1] = combined with peptide at 1 μg/ml
[2] = combined with peptide at 2 μg/ml
[3] = combined with peptide at 4 μg/ml
[4] = combined with peptide at 6 μg/ml
[5] = combined with peptide at 8 μg/ml
[6] = combined with peptide at 16 μg/ml
[7] = combined with peptide at 32 μg/ml
[8] = combined with peptide at 64 μg/ml
[9] = peptide treatment concentration 1 μg/ml
[10] = peptide treatment concentration 2 μg/ml
[11] = peptide treatment concentration 4 μg/ml

In the case of CC[C@H](C)[C@H](NC(=O)[C@H](CCCCN)NC(=O)[C@H](Cc1c[nH]c2ccccc12)NC(=O)[C@@H](N)CCCNC(=N)N)C(=O)N[C@@H](Cc1ccccc1)C(=O)N[C@@H](CCCCN)C(=O)N[C@@H](CCCCN)C(=O)N[C@H](C(=O)N1CCC[C@H]1C(=O)N[C@@H](CCCCN)C(=O)N[C@@H](CC(C)C)C(=O)N[C@@H](CC(C)C)C(=O)N[C@@H](Cc1c[nH]cn1)C(=O)N[C@@H](CCC(=O)O)C(=O)N[C@@H](C)C(=O)N[C@@H](CCCCN)C(=O)N[C@@H](CCCCN)C(=O)N[C@@H](Cc1c[nH]c2ccccc12)C(N)=O)[C@@H](C)CC [PapMA-13, RWK IFK KIP KLL HEA KKW-NH2] (H-RWKIFKKIPKLLHEAKKW-NH2; N-terminus assumed), the “Minimal inhibitory concentration MIC” value (MDRST 8007) is reported as 16 µg/mL (≈ 6.81 µM), the “Synergistic effect of antibacterial activity with existing antibiotics compared with PapMA-1” value (A. baumannii; A. baumannii and MDRAB 12035) is reported as “higher level than the PapMA-1 peptide” and the “Antibiotic MIC, Erythromycin” value (A. baumannii; [1]) is reported as 16 µg/mL. For the same compound, the “Antibiotic MIC, Linezolid” value (A. baumannii; [1]) was 64 µg/mL, the “Antibiotic MIC, Vancomycin” value (A. baumannii; [1]) was 128 µg/mL and the “Antibiotic MIC, Erythromycin” value (A. baumannii; [2]) was 8 µg/mL. The “Antibiotic MIC, Linezolid” value (A. baumannii; [2]) was 32 µg/mL, the “Antibiotic MIC, Vancomycin” value (A. baumannii; [2]) was 64 µg/mL and the “Antibiotic MIC, Erythromycin” value (A. baumannii; [3]) was 1 µg/mL. For the same compound, the “Antibiotic MIC, Linezolid” value (A. baumannii; [3]) was 4 µg/mL, the “Antibiotic MIC, Vancomycin” value (A. baumannii; [3]) was 4 µg/mL and the “Antibiotic MIC, Erythromycin” value (A. baumannii; [4]) was 0.5 µg/mL. For the same compound, the “Antibiotic MIC, Linezolid” value (A. baumannii; [4]) was 2 µg/mL, the “Antibiotic MIC, Vancomycin” value (A. baumannii; [4]) was 1 µg/mL and the “Antibiotic MIC, Erythromycin” value (A. baumannii; [5]) was 0.125 µg/mL. For the same compound, the “Antibiotic MIC, Linezolid” value (A. baumannii; [5]) was 1 µg/mL, the “Antibiotic MIC, Vancomycin” value (A. baumannii; [5]) was 0.5 µg/mL and the “Antibiotic MIC, Erythromycin” value (A. baumannii; [6]) was 0 µg/mL. For the same compound, the “Antibiotic MIC, Linezolid” value (A. baumannii; [6]) was 0 µg/mL, the “Antibiotic MIC, Vancomycin” value (A. baumannii; [6]) was 0 µg/mL and the “Antibiotic MIC, Erythromycin” value (A. baumannii; [7]) was 0 µg/mL. For the same compound, the “Antibiotic MIC, Linezolid” value (A. baumannii; [7]) was 0 µg/mL, the “Antibiotic MIC, Vancomycin” value (A. baumannii; [7]) was 0 µg/mL and the “Antibiotic MIC, Erythromycin” value (A. baumannii; [8]) was 0 µg/mL. For the same compound, the “Antibiotic MIC, Linezolid” value (A. baumannii; [8]) was 0 µg/mL, the “Antibiotic MIC, Vancomycin” value (A. baumannii; [8]) was 0 µg/mL and the “Synergistic effect of antibacterial activity with existing antibiotics compared with PapMA-1” value (E. coli; E. coli and MDREC1229) was “higher level than the PapMA-1 peptide”. For the same compound, the “Antibiotic MIC, Erythromycin” value (E. coli; erythromycin combined with peptide at 1 μg/ml) was 64 µg/mL, the “Antibiotic MIC, Erythromycin” value (E. coli; erythromycin combined with peptide at 2 μg/ml) was 16 µg/mL and the “Antibiotic MIC, Erythromycin” value (E. coli; erythromycin combined with peptide at 4 μg/ml) was 2 µg/mL. The “Antibiotic MIC, Erythromycin” value (E. coli; erythromycin combined with peptide at 6 μg/ml) was 1 µg/mL, the “Antibiotic MIC, Erythromycin” value (E. coli; erythromycin combined with peptide at 8 μg/ml) was 0.25 µg/mL and the “Antibiotic MIC, Erythromycin” value (E. coli; erythromycin combined with peptide at 16 μg/ml) was 0 µg/mL. The “Antibiotic MIC, Erythromycin” value (E. coli; erythromycin combined with peptide at 32 μg/ml) was 0 µg/mL, the “Antibiotic MIC, Erythromycin” value (E. coli; erythromycin combined with peptide at 64 μg/ml) was 0 µg/mL and the “Antibiotic MIC, Linezolid” value (E. coli; linezolid combined with peptide at 1 μg/ml) was over 128 µg/mL. The “Antibiotic MIC, Linezolid” value (E. coli; linezolid combined with peptide at 2 μg/ml) was 64 µg/mL, the “Antibiotic MIC, Linezolid” value (E. coli; linezolid combined with peptide at 4 μg/ml) was 8 µg/mL and the “Antibiotic MIC, Linezolid” value (E. coli; linezolid combined with peptide at 6 μg/ml) was 4 µg/mL. The “Antibiotic MIC, Linezolid” value (E. coli; linezolid combined with peptide at 8 μg/ml) was 1 µg/mL, the “Antibiotic MIC, Linezolid” value (E. coli; linezolid combined with peptide at 16 μg/ml) was 0 µg/mL and the “Antibiotic MIC, Linezolid” value (E. coli; linezolid combined with peptide at 32 μg/ml) was 0 µg/mL. The “Antibiotic MIC, Linezolid” value (E. coli; linezolid combined with peptide at 64 μg/ml) was 0 µg/mL, the “Antibiotic MIC, Vancomycin” value (E. coli; vancomycin combined with peptide at 1 μg/ml) was over 128 µg/mL and the “Antibiotic MIC, Vancomycin” value (E. coli; vancomycin combined with peptide at 2 μg/ml) was 64 µg/mL. For the same compound, the “Antibiotic MIC, Vancomycin” value (E. coli; vancomycin combined with peptide at 4 μg/ml) was 16 µg/mL, the “Antibiotic MIC, Vancomycin” value (E. coli; vancomycin combined with peptide at 6 μg/ml) was 8 µg/mL and the “Antibiotic MIC, Vancomycin” value (E. coli; vancomycin combined with peptide at 8 μg/ml) was 2 µg/mL. The “Antibiotic MIC, Vancomycin” value (E. coli; vancomycin combined with peptide at 16 μg/ml) was 0 µg/mL, the “Antibiotic MIC, Vancomycin” value (E. coli; vancomycin combined with peptide at 32 μg/ml) was 0 µg/mL and the “Antibiotic MIC, Vancomycin” value (E. coli; vancomycin combined with peptide at 64 μg/ml) was 0 µg/mL. For the same compound, the “Erythromycin MIC during combined treatment with peptide” value (MDRAB 12035; [9]) was 16 µg/mL, the “Linezolid MIC during combined treatment with peptide” value (MDRAB 12035; [9]) was 128 µg/mL and the “Vancomycin MIC during combined treatment with peptide” value (MDRAB 12035; [9]) was 128 µg/mL. The “Erythromycin MIC during combined treatment with peptide” value (MDRAB 12035; [10]) was 8 µg/mL, the “Linezolid MIC during combined treatment with peptide” value (MDRAB 12035; [10]) was 32 µg/mL and the “Vancomycin MIC during combined treatment with peptide” value (MDRAB 12035; [10]) was 64 µg/mL. The “Erythromycin MIC during combined treatment with peptide” value (MDRAB 12035; [11]) was 4 µg/mL, the “Linezolid MIC during combined treatment with peptide” value (MDRAB 12035; [11]) was 16 µg/mL and the “Vancomycin MIC during combined treatment with peptide” value (MDRAB 12035; [11]) was 16 µg/mL.
